Results as given in US6309874A, “Selection marker” (priority 1998, dated 2001).

Key:
[1] = target: T1, Leu799Cys (L799C) rat Na+,K+-ATPase a1 subunit (Rattus norvegicus, UniProt P06685, L800C); test: Na+,K+-ATPase-dependent ATP hydrolysis, mutated enzyme; type: biochemical
T1 construct: expressed in transfected cells; crude membrane fraction
Protocol: (§1) Cells were lysed by treatment with 1 mM Tris-HCl pH 7.5 on ice for 15 min and a crude membrane fraction was prepared as described (Horiuchi, A., Takeyasu, K., Mouradian, M., Jose, P and Felder, R (1993) Mol. Phamiacol. 43, 281-285). The membrane fraction was frozer, in aliquots and stored over-night at -70° C.

[2] = target: T2, wild type rat Na+,K+-ATPase a1 subunit (Rattus norvegicus, UniProt P06685); test: Na+,K+-ATPase-dependent ATP hydrolysis, natural enzyme; type: biochemical
T2 construct: expressed in transfected cells; crude membrane fraction
Protocol: as §1

[3] = system: ouabain-sensitive (endogenous) Na+,K+-ATPase; test: Pilot studies, ouabain-sensitive enzyme population; type: biochemical
Protocol: as §1

[4] = system: Na+,K+-ATPase; test: Pilot studies, total Na+,K+-ATPase of transfected cells; type: biochemical; conditions: 10^-5 M ouabain, 10 µM
Protocol: as §1

[5] = system: untransfected COS-7 cells; test: Cell attachment on fibronectin, untransfected cells; type: cell-based, monkey; conditions: different concentrations of ouabain, 0 to 1.0 mM, FIG. 2
Protocol: (§2) Cell attachment on fibronectin coted substrates was assayed in microtiterwells (Costar). All wells were preincubated over night at 4° C. with 5 microg/ml concentration of fibronectin. Before adding cells, each well was preincubated with 1% BSA for 30 min in 37° C. and later washed with serum free DMEM. Untransfected COS-7 cells and COS-7 cells expressing wild type or L799C Na+,K+-ATPase were grown in a 3 microCi/ml H3-thymidine containing medium supplemented with 10% fetal calf serum and harvested after approximately 72 hours at 60-80% confluence. Approximately 25,000 cells /wells were seeded in serum free DMEM. Cells were first incubated 15 min with different concentrations of oubain and then allowed to attach to fibronectin (5 μg/ml) coated substrates during 30 min of incubation in 37° C. and later washed with serum free DMEM. Radioactivity was measured in a Wallac Scintillation counter. Results are presented as % remaining radioactivity compared to untreated.

[6] = system: COS-7 cells expressing wild type Na+,K+-ATPase; test: Cell attachment on fibronectin, wild type transfected cells; type: cell-based, monkey; conditions: different concentrations of ouabain, 0 to 1.0 mM, FIG. 2
Protocol: as §2

[7] = system: COS-7 cells expressing L799C Na+,K+-ATPase; test: Cell attachment on fibronectin, L799C transfected cells; type: cell-based, monkey; conditions: different concentrations of ouabain, 0 to 1.0 mM, FIG. 2
Protocol: as §2

[8] = system: cells with mutated murine and human NKA alpha 1-subunit; conditions: read-out: IC50 for ouabain; cells with a mutation in murine and human NKA alpha 1-subunit, Cantley et al 1994; cited from earlier work
[9] = system: LLC-PK1 cells transfected with mutated (L799C and/or L801C) rat Na+,K+-ATPase alpha1 subunit; test: Survival study, transfected LLC-PK1 cells
[10] = system: cells transfected with mutant rat Na+,K+-ATPase a1; test: Cell survival in ouabain medium, mutant transfected cells
[11] = system: cells transfected with wild type rat Na+,K+-ATPase a1; test: Cell survival in ouabain medium, wild type transfected cells; conditions: 500 μM ouabain

In the case of `C[C@@H]1O[C@@H](O[C@H]2C[C@@H](O)[C@]3(CO)[C@H]4[C@H](O)C[C@]5(C)[C@@H](C6=CC(=O)OC6)CC[C@]5(O)[C@@H]4CC[C@]3(O)C2)[C@H](O)[C@H](O)[C@H]1O` [ouabain], the “inhibition of the enzyme” value ([1]; ouabain concentrations up to 2 mM) is reported as “no significant inhibition”, the activity at 2000 µM ([1]; read-out: (Na,K)-ATPase activity in percent in comparison with not treated) is reported as roughly 100% and the inhibition at 2000 µM [2] is reported as 85 to 90%. For the same compound, the IC100 ([2]; read-out: ouabain concentration that completely inhibited the enzyme population, pilot studies, ouabain-insensitive (transfected) wild type enzyme) was 5000 µM, the “ouabain concentration that completely inhibited the enzyme population” value [3] was 10^-5 M and the “share of Na+,K+-ATPase resistant to ouabain” value [4] was “Approximately 60%”. For the same compound, the “cell attachment to fibronectin coated substrates” value (from here on “cell attachment”) [5] was “loss of attachment”, the “cell attachment” value ([5]; listed as oubain) was “decreased dose dependent” and the “cell attachment” value [6] was “loss of attachment”. The “cell attachment” value [7] was “no change in attachment”, the IC50 [8] was roughly 5 mM and the “growing and morphological characteristics of the cells” value ([9]; as high as 500×10^-6 M ouabain) was “did not seem to alter”. For the same compound, the “cell survival, multiplication and exterior” value ([9]; ouabain concentrations up to 500 μM) was “survive, multiply and keep their natural exterior”, the “ouabain concentration survived by the cells” value [10] was “at least 1×10^-3 M” and the cell survival ([10]; longtime treatment with 500 μM ouabain) was “survived”. For the same compound, the cell survival [11] was “died and died within a few days”.
